According to ChEMBL document CHEMBL1201862, “PubChem BioAssay data set” (2004):
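Results reflect a 48-hour exposure of cells in 96-well plates to compound at five concentrations. Abbreviation: GI50, concentration required for 50% inhibition of growth.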 Calls of active or inactive are those of the source. Cut-off read from the data, not from the text of the source: active = GI50 up to about 1.1 µM and inactive = higher.

Assays:
Experiment in all cases: NCI anticancer screen, dose series, 48 h
BT-549 = tested on: BT-549
COLO 205 = tested on: COLO 205
CCRF-CEM = tested on: CCRF-CEM
U-251 = tested on: U-251
MDA-N = tested on: MDA-N
T47D = tested on: T47D
NCI-H522 = tested on: NCI-H522
HOP-92 = tested on: HOP-92
HOP-62 = tested on: HOP-62
MDA-MB-231 = tested on: MDA-MB-231
HCT-15 = tested on: HCT-15
HL-60 = tested on: HL-60
OVCAR-5 = tested on: OVCAR-5
IGROV-1 = tested on: IGROV-1
Hs-578T = tested on: Hs-578T
Malme-3M = tested on: Malme-3M
SK-MEL-2 = tested on: SK-MEL-2
ACHN = tested on: ACHN
SNB-19 = tested on: SNB-19
LOX IMVI = tested on: LOX IMVI

CC(=O)[C@@]1(O)CC[C@H]2[C@@H]3C[C@H](C)C4=CC(=O)C=C[C@]4(C)[C@@]3(F)[C@@H](O)C[C@@]21C [FLUOROMETHOLONE]
GI50 (BT-549): > 100 µM (inactive)
GI50 (COLO 205): > 100 µM (inactive)
GI50 (CCRF-CEM): 1.8 µM (inactive)
GI50 (U-251): > 100 µM (inactive)
GI50 (MDA-N): > 100 µM (inactive)
GI50 (T47D): > 69.8 µM (inactive)
GI50 (NCI-H522): > 93.3 µM (inactive)
GI50 (HOP-92): > 100 µM (inactive)
GI50 (HOP-62): > 100 µM (inactive)
GI50 (MDA-MB-231): > 91 µM (inactive)
GI50 (HCT-15): > 100 µM
GI50 (HL-60): > 100 µM (inactive)
GI50 (OVCAR-5): > 38.5 µM (inactive)
GI50 (IGROV-1): > 100 µM (inactive)
GI50 (Hs-578T): > 100 µM (inactive)
GI50 (Malme-3M): > 100 µM (inactive)
GI50 (SK-MEL-2): > 100 µM (inactive)
GI50 (ACHN): > 100 µM (inactive)
GI50 (SNB-19): > 100 µM (inactive)
GI50 (LOX IMVI): > 100 µM (inactive)

Cc1cc(C)nc(NS(=O)(=O)c2ccc(NNc3c4ccccc4nc4c(C(=O)Nc5ccc(S(N)(=O)=O)cc5)cccc34)cc2)n1
GI50 (BT-549): 34.8 µM (inactive)
GI50 (COLO 205): > 100 µM (inactive)
GI50 (CCRF-CEM): 20.2 µM (inactive)
GI50 (U-251): 14.1 µM (inactive)
GI50 (MDA-N): 49.5 µM (inactive)
GI50 (T47D): 4.23 µM (inactive)
GI50 (NCI-H522): 19.7 µM (inactive)
GI50 (HOP-92): 17.4 µM (inactive)
GI50 (HOP-62): 33.4 µM (inactive)
GI50 (MDA-MB-231): 13.3 µM (inactive)
GI50 (HCT-15): > 100 µM
GI50 (HL-60): 34.9 µM (inactive)
GI50 (OVCAR-5): 31.1 µM (inactive)
GI50 (IGROV-1): 34.6 µM (inactive)
GI50 (Hs-578T): 64.1 µM (inactive)
GI50 (Malme-3M): 43.3 µM (inactive)
GI50 (SK-MEL-2): 12.8 µM (inactive)
GI50 (ACHN): 28.1 µM (inactive)
GI50 (SNB-19): 27.8 µM (inactive)
GI50 (LOX IMVI): 19.2 µM (inactive)

COc1ccc(CNc2nc(NCc3ccc(OC)cc3)nc(NC3CCCCC3)n2)cc1
GI50 (BT-549): 4.08 µM (inactive)
GI50 (COLO 205): 1.94 µM (inactive)
GI50 (CCRF-CEM): 2.21 µM (inactive)
GI50 (U-251): 3.03 µM (inactive)
GI50 (MDA-N): 0.65 µM (active)
GI50 (T47D): 3.51 µM (inactive)
GI50 (NCI-H522): 1.21 µM (inactive)
GI50 (HOP-92): 24 µM (inactive)
GI50 (HOP-62): 5.5 µM (inactive)
GI50 (MDA-MB-231): 2.48 µM (inactive)
GI50 (HCT-15): 2.13 µM
GI50 (HL-60): 4.34 µM (inactive)
GI50 (OVCAR-5): 4.99 µM (inactive)
GI50 (IGROV-1): 2.09 µM (inactive)
GI50 (Hs-578T): 1.77 µM (inactive)
GI50 (Malme-3M): 0.225 µM (active)
GI50 (SK-MEL-2): 2.81 µM (inactive)
GI50 (ACHN): 5.11 µM (inactive)
GI50 (SNB-19): 2.07 µM (inactive)
GI50 (LOX IMVI): 3.13 µM (inactive)

NC(=O)NOCC1NC(=O)NC1=O (stereo not drawn)
GI50 (BT-549): > 100 µM (inactive)
GI50 (COLO 205): > 100 µM (inactive)
GI50 (CCRF-CEM): 4.16 µM (inactive)
GI50 (U-251): > 100 µM (inactive)
GI50 (MDA-N): > 100 µM (inactive)
GI50 (T47D): > 100 µM (inactive)
GI50 (NCI-H522): > 100 µM (inactive)
GI50 (HOP-92): > 100 µM (inactive)
GI50 (HOP-62): > 100 µM (inactive)
GI50 (MDA-MB-231): > 100 µM (inactive)
GI50 (HCT-15): > 100 µM
GI50 (HL-60): 19.3 µM (inactive)
GI50 (OVCAR-5): > 100 µM (inactive)
GI50 (IGROV-1): > 100 µM (inactive)
GI50 (Hs-578T): > 100 µM (inactive)
GI50 (Malme-3M): > 100 µM (inactive)
GI50 (SK-MEL-2): > 100 µM (inactive)
GI50 (ACHN): > 100 µM (inactive)
GI50 (SNB-19): > 100 µM (inactive)
GI50 (LOX IMVI): > 100 µM (inactive)

C=C1C(=O)O[C@@H]2/C=C(\C)CC/C=C(\C)CC[C@@]12O
GI50 (BT-549): 1.99 µM (inactive)
GI50 (COLO 205): 1.84 µM (inactive)
GI50 (CCRF-CEM): 0.149 µM (active)
GI50 (U-251): 7.36 µM (inactive)
GI50 (MDA-N): 2.25 µM (inactive)
GI50 (T47D): 1.41 µM (inactive)
GI50 (NCI-H522): 0.371 µM (active)
GI50 (HOP-92): 1.78 µM (inactive)
GI50 (HOP-62): 5.07 µM (inactive)
GI50 (MDA-MB-231): 8.65 µM (inactive)
GI50 (HCT-15): 2.82 µM
GI50 (HL-60): 0.771 µM (active)
GI50 (OVCAR-5): 11.4 µM (inactive)
GI50 (IGROV-1): 3.52 µM (inactive)
GI50 (Hs-578T): 8.79 µM (inactive)
GI50 (Malme-3M): 1.53 µM (inactive)
GI50 (SK-MEL-2): 9.38 µM (inactive)
GI50 (ACHN): 1.59 µM (inactive)
GI50 (SNB-19): 5.43 µM (inactive)
GI50 (LOX IMVI): 1.9 µM (inactive)

CNc1ccc(C(=O)CC(O)CCC(C)C2OC(=O)CC(O)CC(=O)CC(O)CC(O)CC(O)CC(O)CC3(O)CC(O)C(C(=O)NCCN(C)C)C(CC(OC4OC(C)C(O)C(NC(=O)CN5CCN(C)CC5)C4O)\C=C/C=C\C=C/C=C/C=C/C=C\C=C/C2C)O3)cc1 (stereo not drawn)
GI50 (BT-549): 11.2 µM (inactive)
GI50 (COLO 205): 3.86 µM (inactive)
GI50 (U-251): 4.86 µM (inactive)
GI50 (MDA-N): 6.46 µM (inactive)
GI50 (T47D): 51.4 µM (inactive)
GI50 (NCI-H522): 2.65 µM (inactive)
GI50 (HOP-92): > 100 µM (inactive)
GI50 (HOP-62): 25.6 µM (inactive)
GI50 (MDA-MB-231): 81.7 µM (inactive)
GI50 (HCT-15): 6.18 µM
GI50 (HL-60): 7.29 µM (inactive)
GI50 (OVCAR-5): 57.4 µM (inactive)
GI50 (IGROV-1): 7.67 µM (inactive)
GI50 (Hs-578T): 1.91 µM (inactive)
GI50 (Malme-3M): 2.28 µM (inactive)
GI50 (SK-MEL-2): 6.22 µM (inactive)
GI50 (ACHN): 2.84 µM (inactive)
GI50 (SNB-19): 3.38 µM (inactive)
GI50 (LOX IMVI): 2.92 µM (inactive)

COC(=O)Nc1nc2cc(Oc3ccc4nc(NC(=O)OC)[nH]c4c3)ccc2[nH]1
GI50 (BT-549): 7.01 µM (inactive)
GI50 (COLO 205): 0.708 µM (active)
GI50 (CCRF-CEM): 0.371 µM (active)
GI50 (U-251): 0.681 µM (active)
GI50 (MDA-N): 0.105 µM (active)
GI50 (T47D): 2.59 µM (inactive)
GI50 (NCI-H522): 1.34 µM (inactive)
GI50 (HOP-92): 6.56 µM (inactive)
GI50 (HOP-62): 1.56 µM (inactive)
GI50 (MDA-MB-231): 1.68 µM (inactive)
GI50 (HCT-15): 1.28 µM
GI50 (HL-60): 0.608 µM (active)
GI50 (OVCAR-5): 9.02 µM (inactive)
GI50 (IGROV-1): 1.45 µM (inactive)
GI50 (Hs-578T): 0.975 µM (active)
GI50 (Malme-3M): 0.61 µM (active)
GI50 (SK-MEL-2): 1.34 µM (inactive)
GI50 (SNB-19): 1.29 µM (inactive)
GI50 (LOX IMVI): 2.01 µM (inactive)
